Measured values: publication PMC6496959 (Journal of medicinal chemistry, 2018)

Tested on: A/PR/8/34 (NA-H274Y) (H1N1)
Assay type: cell-based, influenza A virus
Conditions: read-out: Antiviral activity (EC50)

| Structure (SMILES) | EC50 |
| --- | --- |
| CCOC(=O)C1=C[C@@H](OC(CC)CC)[C@H](NC(C)=O)[C@@H](N)C1 [Oseltamivir, oseltamivir] | > 10 µM |
| NC12CC3CC(CC(C3)C1)C2 [Amantadine, amantadine, reference compound] | > 100 µM |
